pIC50: −log10 of the molar value.
Legend:
IRAK4 = biological target: T1, IRAK4 (Homo sapiens, UniProt Q9NWZ3); experiment: RBC HotSpot Kinase Assay, IRAK4; assay type: biochemical; parameters: purchased RBC (Reaction Biology) HotSpot assay; details: HotSpot functional assay, isolated kinase enzyme, 33P-ATP
T1 sequence (Q9NWZ3 1-460): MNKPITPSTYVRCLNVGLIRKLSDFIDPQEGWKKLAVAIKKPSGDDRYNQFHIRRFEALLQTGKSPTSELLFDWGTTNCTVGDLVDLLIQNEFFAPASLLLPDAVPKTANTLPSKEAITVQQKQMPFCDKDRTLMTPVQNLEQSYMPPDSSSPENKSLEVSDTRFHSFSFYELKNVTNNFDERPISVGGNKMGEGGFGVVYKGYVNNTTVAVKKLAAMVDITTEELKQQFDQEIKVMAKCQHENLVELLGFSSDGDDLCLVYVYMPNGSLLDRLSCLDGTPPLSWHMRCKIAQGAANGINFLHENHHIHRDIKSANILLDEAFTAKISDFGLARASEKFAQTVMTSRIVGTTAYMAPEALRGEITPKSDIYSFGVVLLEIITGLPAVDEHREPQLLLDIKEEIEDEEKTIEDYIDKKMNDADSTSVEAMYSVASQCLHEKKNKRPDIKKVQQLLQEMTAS
Procedure, shortened: (§1)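 Isolated kinases, possibly truncated or lacking regulatory receptor regions, were preincubated with compound for 20 min at room temp in 20 mM Hepes pH 7.5, 10 mM MgCl2, 1 mM EGTA, 2 mM DTT, 1% DMSO. Reactions were started with ^33P-ATP and run 2 h at room temperature; activity was read by P81 filter binding.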

FLT3 = biological target: T2, FLT3 (Homo sapiens, UniProt P36888); experiment: RBC HotSpot Kinase Assay, FLT3; assay type: biochemical; parameters: purchased RBC (Reaction Biology) HotSpot assay; details: HotSpot functional assay, isolated kinase enzyme, 33P-ATP
T2 sequence (P36888 27-993): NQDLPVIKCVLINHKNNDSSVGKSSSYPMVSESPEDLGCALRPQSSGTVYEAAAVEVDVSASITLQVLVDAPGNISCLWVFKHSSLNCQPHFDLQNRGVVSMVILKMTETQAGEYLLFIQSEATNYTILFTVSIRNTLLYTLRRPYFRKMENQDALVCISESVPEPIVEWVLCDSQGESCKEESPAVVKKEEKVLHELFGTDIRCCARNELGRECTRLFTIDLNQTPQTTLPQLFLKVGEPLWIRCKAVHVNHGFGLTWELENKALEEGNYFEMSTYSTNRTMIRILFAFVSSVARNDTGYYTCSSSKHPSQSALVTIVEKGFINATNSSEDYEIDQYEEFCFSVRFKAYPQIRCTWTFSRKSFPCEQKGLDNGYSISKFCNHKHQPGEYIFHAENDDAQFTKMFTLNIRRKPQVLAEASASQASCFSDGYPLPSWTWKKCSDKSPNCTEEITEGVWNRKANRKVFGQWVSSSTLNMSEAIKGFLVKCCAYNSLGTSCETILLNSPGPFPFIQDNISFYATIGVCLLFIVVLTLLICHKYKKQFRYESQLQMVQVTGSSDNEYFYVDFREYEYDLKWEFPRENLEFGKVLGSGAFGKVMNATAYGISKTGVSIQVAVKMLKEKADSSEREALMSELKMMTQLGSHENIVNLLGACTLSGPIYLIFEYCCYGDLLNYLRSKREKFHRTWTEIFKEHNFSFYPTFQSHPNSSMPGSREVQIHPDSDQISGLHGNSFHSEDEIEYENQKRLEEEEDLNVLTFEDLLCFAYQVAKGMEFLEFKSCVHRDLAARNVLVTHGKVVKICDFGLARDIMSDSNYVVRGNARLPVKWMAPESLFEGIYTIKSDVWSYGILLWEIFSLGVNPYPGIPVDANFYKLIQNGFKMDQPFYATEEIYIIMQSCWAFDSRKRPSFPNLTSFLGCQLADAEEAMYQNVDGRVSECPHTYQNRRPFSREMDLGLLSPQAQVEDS
Procedure, shortened: as §1

COc1cc2ncc(-c3nc(N[C@H]4CNCC[C@@H]4F)c(F)cc3F)n2nc1C1CCC1 [Compound 15a, 6-(6-cyclobutyl-7-methoxyimidazo[1,2-b]pyridazin-3-yl)-3,5-difluoro-N-((3S,4S)-4-fluoropiperidin-3-yl)pyridin-2-amine] was tested, and the pIC50 (IRAK4) was 8.70 and the pIC50 (FLT3) was > 9.30.
With COc1cc2ncc(-c3nc(N[C@H]4CNCC[C@@H]4F)c(F)cc3F)n2nc1C(C)(O)C(F)(F)F (single isomer, unassigned) [Compound 77a] the pIC50 (IRAK4) was 7.80 and the pIC50 (FLT3) was > 9.30.
COc1cc2ncc(-c3nc(N[C@H]4CNC[C@@H]4F)c(F)cc3F)n2nc1C1CC2(CCC2)C1 [Compound 12a, 3,5-difluoro-N-((3S,4S)-4-fluoropyrrolidin-3-yl)-6-(7-methoxy-6-(spiro[3.3]heptan-2-yl)imidazo[1,2-b]pyridazin-3-yl)pyridin-2-amine] was tested, and the pIC50 (IRAK4) was 8.22 and the pIC50 (FLT3) was > 9.30.
With COc1cc2ncc(-c3nc(N[C@H]4CNCC[C@@H]4F)c(F)cc3F)n2nc1C12CC(C1)C2 [Compound 67a, 6-(6-(bicyclo[1.1.1]pentan-1-yl)-7-methoxyimidazo[1,2-b]pyridazin-3-yl)-3,5-difluoro-N-((3S,4S)-4-fluoropiperidin-3-yl)pyridin-2-amine] the pIC50 (IRAK4) was 8.52 and the pIC50 (FLT3) was > 9.30.
With COc1cc2ncc(-c3nc(N[C@H]4CNCC[C@@H]4F)c(F)cc3F)n2nc1C1CC2(CCC2)C1 [Compound 10a, 3,5-difluoro-N-((3S,4S)-4-fluoropiperidin-3-yl)-6-(7-methoxy-6-(spiro[3.3]heptan-2-yl)imidazo[1,2-b]pyridazin-3-yl)pyridin-2-amine] the pIC50 (IRAK4) was 7.66 and the pIC50 (FLT3) was > 9.30.
With COc1cc2ncc(-c3nc(N[C@@H]4CCCNC4)c(F)cc3F)n2nc1C(C)(O)C(F)(F)F (single isomer, unassigned) [Compound 81a] the pIC50 (IRAK4) was 7.23 and the pIC50 (FLT3) was > 9.30.
For COc1cc2ncc(-c3nc(N[C@H]4CNC[C@@H]4F)c(F)cc3F)n2nc1C(C)(O)C(F)(F)F (single isomer, unassigned) [Compound 80a], the pIC50 (IRAK4) was 7.62 and the pIC50 (FLT3) was > 9.30.

Reference: patent publication US20250368648A1, “MULTI-CYCLIC IRAK AND FLT3 INHIBITING COMPOUNDS AND USES THEREOF” (CHILDREN'S HOSPITAL MEDICAL CENTER, priority 2022, published 2025)
